Structures can show the parent of a compound that is named as a salt.
Columns and labels:
[1] = biological target: T1, human Adenosine A2b receptor (Homo sapiens, UniProt P29275); assay: Adenosine receptor TR-FRET binding assay (CA200645 displacement), A2b; conditions: 30 nM CA200645, CHO cell membranes, 2 hours at room temperature
T1 construct: expressed in transfected cells; host or cells: CHO cell membranes
T1 sequence (P29275 1-332): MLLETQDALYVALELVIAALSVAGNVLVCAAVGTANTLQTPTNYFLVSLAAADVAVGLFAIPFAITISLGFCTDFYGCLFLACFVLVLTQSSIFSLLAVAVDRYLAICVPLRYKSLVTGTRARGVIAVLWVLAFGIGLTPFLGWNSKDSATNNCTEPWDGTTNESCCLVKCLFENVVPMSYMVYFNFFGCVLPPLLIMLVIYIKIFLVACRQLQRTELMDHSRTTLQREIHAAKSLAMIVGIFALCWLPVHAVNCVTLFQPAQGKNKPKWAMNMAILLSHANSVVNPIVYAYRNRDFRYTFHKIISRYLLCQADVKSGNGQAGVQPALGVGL

[2] = biological target: T2, human Adenosine A2a receptor (Homo sapiens, UniProt P29274); assay: Adenosine receptor TR-FRET binding assay (CA200645 displacement), A2a; conditions: 100 nM CA200645, CHO cell membranes, 2 hours at room temperature
T2 construct: expressed in transfected cells; host or cells: CHO cell membranes
T2 sequence (P29274 whole entry): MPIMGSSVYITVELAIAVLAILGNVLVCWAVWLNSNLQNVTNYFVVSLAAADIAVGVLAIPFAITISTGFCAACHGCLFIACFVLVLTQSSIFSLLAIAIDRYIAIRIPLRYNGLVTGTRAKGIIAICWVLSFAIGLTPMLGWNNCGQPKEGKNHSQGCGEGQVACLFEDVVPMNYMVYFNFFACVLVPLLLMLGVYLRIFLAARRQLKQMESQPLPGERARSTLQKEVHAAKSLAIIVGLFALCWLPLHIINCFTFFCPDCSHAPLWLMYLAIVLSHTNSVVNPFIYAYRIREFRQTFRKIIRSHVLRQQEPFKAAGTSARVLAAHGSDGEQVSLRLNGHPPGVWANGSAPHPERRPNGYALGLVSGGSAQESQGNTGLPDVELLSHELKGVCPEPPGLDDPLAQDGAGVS

[3] = biological target: T3, human Adenosine A3 receptor (Homo sapiens, UniProt P0DMS8); assay: Adenosine receptor TR-FRET binding assay (CA200645 displacement), A3
T3 sequence (P0DMS8 1-318): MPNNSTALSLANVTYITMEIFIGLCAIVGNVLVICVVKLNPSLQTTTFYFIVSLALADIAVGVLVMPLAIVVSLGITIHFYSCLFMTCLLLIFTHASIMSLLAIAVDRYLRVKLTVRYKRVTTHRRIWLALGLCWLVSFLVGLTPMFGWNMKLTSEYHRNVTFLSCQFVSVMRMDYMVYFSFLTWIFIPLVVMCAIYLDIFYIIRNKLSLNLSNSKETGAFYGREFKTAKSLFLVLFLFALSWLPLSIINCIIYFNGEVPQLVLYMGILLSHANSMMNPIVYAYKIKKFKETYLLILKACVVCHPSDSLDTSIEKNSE
Method: All FRET binding experiments were conducted at room temperature in white 384-well plates, in assay binding buffer containing 1×LabMed (Cisbio, France), 100 μg/mL saponin, 1% DMSO and 0.02% pluronic acid. Binding of the fluorescently labelled Adenosine receptor antagonist XAC (CA200645, FRET acceptor) to terbium-labelled A1, A2a, A2b and A3 adenosine receptors (FRET donors) was detected by time-resolved FRET due to the close proximity of the donor and acceptor in a binding event. To investigate the ability of unlabelled test compounds to bind to Adenosine A1, A2a, A2b and A3 receptors, dose response curves were constructed that determined the ability of a range of concentrations to inhibit the binding of 30 nM CA200645 to the A2b receptor and 100 nM CA200645 to the A1, A2a, and A3 receptor.
Serial dilution (1:3 dilutions) of test compounds in neat DMSO and transfer of a 400 nL sample of test compound into the assay plate was carried out using the Mosquito (TTP Labtech, UK). The compound samples were incubated for 2 hours at room temperature with a fixed concentration of CA200645 defined for each receptor (see above) and CHO cell membranes containing the human Adenosine A1 (0.5 μg/well), A2a (0.3 μg/well), A2b (1 μg/well) or A3 (1 μg/well) receptor in 40 μL of assay buffer. Total and non-specific binding of CA200645 was determined in the absence and presence of 10 μM XAC, respectively. Following 2 hours incubation, the level of CA200645 binding was detected on a Pherastar FSX (BMG Labtech, Germany) using standard TR-FRET settings. The terbium donor was excited with three laser flashes at a wavelength of 337 nm, and donor and acceptor emission was detected at 620 nm and 665 nm wavelengths, respectively. FRET ratios were obtained by multiplying the acceptor/donor ratio value by 10,000. Specific binding was determined by subtracting the non-specific binding FRET ratio from the total binding FRET ratio. Compound IC50 curves were analysed using GraphPad Prism 7.0 (GraphPad, USA) and Ki affinity values were determined from the obtained IC50 values using the method of Cheng and Prusoff.

[4] = biological target: T4, human Adenosine A1 receptor (Homo sapiens, UniProt P30542); assay: Adenosine receptor TR-FRET binding assay (CA200645 displacement), A1
T4 sequence (P30542 1-326): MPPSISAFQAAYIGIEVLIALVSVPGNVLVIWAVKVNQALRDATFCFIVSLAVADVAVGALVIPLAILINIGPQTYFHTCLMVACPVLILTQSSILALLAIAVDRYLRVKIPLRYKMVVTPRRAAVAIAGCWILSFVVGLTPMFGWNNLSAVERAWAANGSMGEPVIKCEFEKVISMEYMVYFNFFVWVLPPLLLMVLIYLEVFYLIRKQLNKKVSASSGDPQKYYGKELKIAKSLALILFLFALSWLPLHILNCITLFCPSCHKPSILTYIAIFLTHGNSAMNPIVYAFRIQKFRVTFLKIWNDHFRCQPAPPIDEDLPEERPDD

| SMILES | Ki [1] | Ki [2] | Ki [3] | Ki [4] |
| --- | --- | --- | --- | --- |
| CCn1nc(C)cc1-c1c(-c2cccc(C#N)c2)nn2ccc(C(=O)NCC(C)(C)O)nc12 [Example 12.1, 2-(3-Cyanophenyl)-3-(2-ethyl-5-methyl-pyrazol-3-yl)-N-(2-hydroxy-2-methyl-propyl)pyrazolo[1,5-a]pyrimidine-5-carboxamide] | 1.57 µM |  |  |  |
| CC(C)(O)CNC(=O)c1ccn2nc(-c3cccc(C#N)c3)c(-c3ccncn3)c2n1 [Example 13, 2-(3-Cyanophenyl)-N-(2-hydroxy-2-methyl-propyl)-3-pyrimidin-4-yl-pyrazolo[1,5-a]pyrimidine-5-carboxamide] |  | 0.0671 µM | > 1 µM |  |
| CC(C)(O)CNC(=O)c1ccn2nc(-c3cccc(C#N)c3)c(C#N)c2n1 [Example 14, 3-Cyano-2-(3-cyanophenyl)-N-(2-hydroxy-2-methyl-propyl)pyrazolo[1,5-a]pyrimidine-5-carboxamide] |  | 0.218 µM | > 1 µM |  |
| CC(C)(C)OC(=O)N1CCC[C@@H]1CNc1ccn2nc(-c3ccco3)c(C#N)c2n1 [Example 37.2, tert-butyl (2R)-2-[[[3-cyano-2-(2-furyl)pyrazolo[1,5-a]pyrimidin-5-yl]amino]methyl]pyrrolidine-1-carboxylate] |  | 0.0192 µM | 1.93 µM | 0.103 µM |
| N#Cc1c(-c2ccco2)nn2ccc(N3CCN(CCF)CC3)nc12 [Example 37.3] |  | 0.0226 µM | > 1 µM | 0.262 µM |
| N#Cc1c(-c2ccco2)nn2ccc(N3CCN(CCc4ccccc4)CC3)nc12 [Example 37.6] |  | 0.0454 µM | > 1 µM | 0.363 µM |
| N#Cc1c(-c2ccco2)nn2ccc(N3CCN(Cc4ccccn4)CC3)nc12 [Example 37.7] |  | 0.0493 µM | 7.85 µM | 0.154 µM |
| CN1CCN(c2ccn3nc(-c4ccco4)c(C#N)c3n2)CC1 [Example 37.8] |  | 0.0624 µM | > 1 µM | 0.426 µM |
| C[C@H]1CN(c2ccn3nc(-c4ccco4)c(C#N)c3n2)CCN1C(=O)OC(C)(C)C [Example 37.11] |  | 0.171 µM | 2.72 µM | 2.17 µM |
| NC(=O)c1c(-c2ccco2)nn2ccc(N3CCN(CCF)CC3)nc12 [Example 39, 5-[4-(2-Fluoroethyl)piperazin-1-yl]-2-(2-furyl)pyrazolo[1,5-a]pyrimidine-3-carboxamide] |  | 0.0389 µM | > 1 µM | 2.58 µM |
| CN(C)C1CN(c2ccn3nc(-c4ccco4)c(C(N)=O)c3n2)C1 [Example 39.1, 5-[3-(Dimethylamino)azetidin-1-yl]-2-(2-furyl)pyrazolo[1,5-a]pyrimidine-3-carboxamide] |  | 0.127 µM | > 1 µM | 1.34 µM |
| Nc1ccn2nc(-c3ccco3)c(Br)c2n1 [Example 50, 3-Bromo-2-(2-furyl)pyrazolo[1,5-a]pyrimidin-5-amine] |  | 0.151 µM | 3.07 µM | 0.459 µM |
| Cn1ccnc1CN1CCN(c2ccn3nc(-c4ccco4)c(C#N)c3n2)CC1 [Example 51.2, 2-(2-Furyl)-5-[4-[(1-methylimidazol-2-yl)methyl]piperazin-1-yl]pyrazolo [1,5-a]pyrimidine-3-carbonitrile] |  | 0.0549 µM | > 1 µM | 0.104 µM |
| N#Cc1c(-c2ccco2)nn2ccc(N3CCN(CCO)CC3)nc12 [Example 52, 2-(2-Furyl)-5-[4-(2-hydroxyethyl)piperazin-1-yl]pyrazolo[1,5-a]pyrimidine-3-carbonitrile] |  | 0.114 µM | > 1 µM | 1.15 µM |
| COC(=O)/C=C/c1c(-c2ccco2)nn2ccc(NCc3ccccc3)nc12 [Example 54, Methyl (E)-3-[5-(benzylamino)-2-(2-furyl)pyrazolo[1,5-a]pyrimidin-3-yl]prop-2-enoate] |  | 0.0347 µM | 0.068 µM | 0.018 µM |
| O=C(O)/C=C/c1c(-c2ccco2)nn2ccc(NCc3ccccc3)nc12 [Example 54.1, (E)-3-[5-(Benzylamino)-2-(2-furyl)pyrazolo[1,5-a]pyrimidin-3-yl]prop-2-enoic acid] |  | 0.102 µM | 6.18 µM | 0.856 µM |
| Cc1cccnc1CN1CCN(c2ccn3nc(-c4cccc(C#N)c4)c(C#N)c3n2)CC1 [Example 59, 2-(3-Cyanophenyl)-5-[4-[(3-methyl-2-pyridyl)methyl]piperazin-1-yl]pyrazolo[1,5-a]pyrimidine-3-carbonitrile] |  | 0.0175 µM | 3.68 µM | 1.03 µM |
| N#Cc1c(-c2cccc(F)c2)nn2ccc(N3CCN(CCF)CC3)nc12 [Example 61, 5-[4-(2-Fluoroethyl)piperazin-1-yl]-2-(3-fluorophenyl)pyrazolo[1,5-a]pyrimidine-3-carbonitrile] |  | 0.0379 µM | 4.92 µM | 0.042 µM |
| N#Cc1c(-c2cnco2)nn2ccc(N3CCN(CCF)CC3)nc12 [Example 62, 5-[4-(2-Fluoroethyl)piperazin-1-yl]-2-oxazol-5-yl-pyrazolo[1,5-a]pyrimidine-3-carbonitrile] |  | 0.365 µM | > 1 µM |  |
| N#Cc1c(-c2ccc(F)cc2)nn2ccc(NCc3ccccc3)nc12 [Example 63, 5-(Benzylamino)-2-(4-fluorophenyl)pyrazolo[1,5-a]pyrimidine-3-carbonitrile] |  | 0.0491 µM | 0.065 µM | 0.024 µM |
| Cc1cccnc1CN1CCN(c2ccn3nc(-c4cnco4)c(C#N)c3n2)CC1 [Example 65, 5-[4-[(3-Methyl-2-pyridyl)methyl]piperazin-1-yl]-2-oxazol-5-yl-pyrazolo[1,5-a]pyrimidine-3-carbonitrile] |  | 0.407 µM | > 1 µM | 2.48 µM |
| Fc1cccc(-c2cc3nc(NCCN4Cc5ccccc5C4)ccn3n2)c1 [Example 66.4, 2-(3-Fluorophenyl)-N-(2-isoindolin-2-ylethyl)pyrazolo[1,5-a]pyrimidin-5-amine] |  | 0.706 µM | 2.9 µM | 0.803 µM |
| Fc1cccc(-c2nn3ccc(Cl)nc3c2Br)c1 [Example 68, 3-Bromo-5-chloro-2-(3-fluorophenyl)pyrazolo[1,5-a]pyrimidine] |  | 0.572 µM | > 1 µM |  |
| Ic1c(-c2ccco2)nn2ccc(NCc3ccccc3)nc12 [Example 77, N-Benzyl-2-(2-furyl)-3-iodo-pyrazolo[1,5-a]pyrimidin-5-amine] |  | 0.0464 µM | 0.135 µM | 1.43 µM |
| CN1CCC[C@@H]1CNc1ccn2nc(-c3ccco3)c(C#N)c2n1 [Example 81, 2-(2-Furyl)-5-[[(2R)-1-methylpyrrolidin-2-yl]methylamino]pyrazolo[1,5-a]pyrimidine-3-carbonitrile] |  | 0.202 µM | > 1 µM | 1.26 µM |
| C[C@@H]1CN(c2ccn3nc(-c4ccco4)c(C#N)c3n2)CCN1 [Example 82, 2-(2-Furyl)-5-[(3R)-3-methylpiperazin-1-yl]pyrazolo[1,5-a]pyrimidine-3-carbonitrile hydrochloride] |  | 0.665 µM | > 1 µM | 4.33 µM |
| CC(C)(C)OC(=O)N1CCC(c2ccn3nc(-c4ccco4)c(C#N)c3n2)CC1 [Example 83, Tert-butyl 4-[3-cyano-2-(2-furyl)pyrazolo[1,5-a]pyrimidin-5-yl]piperidine-1-carboxylate] |  | 0.694 µM | > 1 µM |  |
| c1ccc(CNc2ncn3nc(-c4ccco4)cc3n2)cc1 [Example 84, N-Benzyl-7-(2-furyl)pyrazolo[1,5-a][1,3,5]triazin-2-amine] |  | 0.16 µM | 0.231 µM | 0.389 µM |
| O=C(NCc1ccccc1)c1ccn2nc(-c3ccco3)cc2n1 [Example 85, N-Benzyl-2-(2-furyl)pyrazolo[1,5-a]pyrimidine-5-carboxamide] |  | 0.493 µM | > 1 µM | 0.366 µM |
| N#Cc1cccc(-c2nn3ccc(NCCN4CCN(c5ccccc5)CC4)nc3c2C#N)c1 [Example 87.1, 2-(3-Cyanophenyl)-5-[2-(4-phenylpiperazin-1-yl)ethylamino]pyrazolo [1,5-a]pyrimidine-3-carbonitrile] |  | 0.0163 µM | > 1 µM | 0.213 µM |
